For data set [1] the following is noted: dogs, reported by Pemberton et al, J Med Chem 2018; cited from earlier work.
In another data set the target is PI3Kγ (Homo sapiens, UniProt P48736). Description: ADP-Glo luminescent assay, enzymatic activity of PI3K gamma. To be noted: ATP 25 μM; read-out: PI3K gamma (nM) inhibitory activity (IC50). Format: biochemical.
For another data set, the target named is T1, PI3K delta (Homo sapiens, UniProt O00329).
T1 construct: endogenous in cells; host or cells: Raji
Description: Raji cell assay: phosphorylation of AKT in anti-IgM stimulated Raji cells (AlphaLISA). It is filed as cell-based. Conditions: pAKT, read-out: PI3K delta Raji cell (nM) cellular activity (IC50). On the procedure:
This study aims to determine the inhibitory effect of compounds on PI3K gamma and PI3K delta in corresponding cell based assays. PI3K gamma activity was reflected by phosphorylation of AKT in C5a stimulated RAW264.7 cells, and PI3K delta activity was reflected by phosphorylation of AKT in anti-IgM stimulated Raji cells. Phosphorylation of AKT in cells was determined using AlphaLISA technology from PerkinElmer.
Raji cell assay: Prepare Passage 11 Raji cell and add 6 μL of 60K cells per well in 384-well plate. Centrifuge at 500 RPM for 30 s and incubate for 2 hours at 37° C., 5% CO2. Add 30 nL compound by Echo and incubate for 30 min at 37° C. Add 2 μL of IgM (4×, 12 μg/mL) per well, centrifuge at 500 RPM for 30 s and incubate for 10 min at 37° C. Add 2 μL of 5× lysis buffer by Multidrop. Shake 10 min on a plate shaker. Add 5 μL acceptor mix provided in the kit. Centrifuge at 1000 RPM for 1 min. Add 5 μL donor mix provided in the kit. Centrifuge at 1000 RPM for 1 min. Then incubate for 2 hours at 25° C., keep the plate in dark. Read AlphaLISA signal on Envision.
Data analysis: Fit the cpd IC50 from non-linear regression equation. Y=Bottom+(Top−Bottom)/(1+10^((Log IC50−X)*Hill Slope)) X: Log of cpd concentration Y: Inhibition

In another data set the target is T2, PI3K gamma (Mus musculus, UniProt Q9JHG7).
T2 construct: endogenous in cells; host or cells: RAW264.7
Description: Raw264.7 cell assay: phosphorylation of AKT in C5a stimulated RAW264.7 cells (AlphaLISA). It is filed as cell-based. Conditions: pAKT, read-out: PI3K gamma Raw264.7 cell (nM) cellular activity (IC50). In outline:
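Passage-15 RAW264.7 cells were plated and rested 2 h at 37 °C, then given compound for 30 min at 37 °C before C5a stimulation. Lysates went to phospho-AKT AlphaLISA with a 2 h dark incubation at 25 °C. IC50 came from a four-parameter logistic fit of inhibition against log concentration.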

The target in a further data set is PI3Kδ (Homo sapiens, UniProt O00329). Description: ADP-Glo luminescent assay, enzymatic activity of PI3K delta. Format: biochemical. To be noted: ATP 25 μM; read-out: PI3K delta (nM) inhibitory activity (IC50). As for the experimental part: Enzymatic activity of PI3K isoforms: Enzymatic activity of the class I PI3K isoforms in the presence of the compounds of Table 1 was measured using ADP-Glo luminescent assay against PI3Kα, PI3Kβ, PI3Kδ and PI3Kγ with ATP concentration at 25 μM. […] The compounds would be tested from 1 or 10 μM, 3-fold dilution for 10 doses, in duplicate.
(§1) Compound preparation: Dilute a compound to 100× of the final desired highest inhibitor concentration in reaction by 100% DMSO. Transfer 100 μl of this compound dilution to a well in a 96-well plate and serially dilute it with DMSO for a total of 10 concentrations.
(§2) Kinase reaction: Prepare a solution of PI3K in 1× kinase buffer at 2-fold the final concentration of each reagent in the assay. Control wells contain 1× kinase buffer without enzyme. Prepare substrate solution of PIP2 substrate and ATP in 1× kinase reaction buffer at 2-fold of the final concentration. Add concentration substrate solution to each well to the final concentration. Cover the assay plate, shake to mix, and incubate at room temperature for 1 hour. Add 5 μl of ADP-Glo reagent to each well to stop the reaction. Mix briefly with a quick spin, shake slowly on the shaker for 120 min. Add 10 ul Kinase Detection Reagent to each well, shake 1 min, equilibrate for 30 min before reading on a luminescence plate reader.
(§3) Data Analysis: Convert RLU values to percent inhibition values as Percent inhibition=(max−sample RLU)/(max−min)*100. “min”—no enzyme control; “max”—DMSO control. Fit the data in XLFit excel add-in version 5.4.0.8 to obtain IC50 values. Y=Bottom+(Top−Bottom)/(1+(IC50/X)^HillSlope).

A short description of data set [2]: Kinetic solubility test in PBS pH7.4. It is filed as physicochemical. Conditions: aqueous buffer, kinetic from dmso stock; PBS pH 7.4, 25° C., 2 hours. As for the experimental part:
15 μL of stock solution (10 mM) was placed in order into their proper 96-well rack. 485 μL of PBS pH7.4 was added into each vial of the cap-less Solubility Sample plate. The assay was performed in singlet. Add one stir stick to each vial and seal using a molded PTFE/Silicone plug. […] After completion of the 2 hours, the samples from the Solubility Sample plate were transferred into the filter plate. all the samples were filtered using the Vacuum Manifold. Aliquot of 5 μL was taken from the filtrate followed by addition of 495 μL of a mixture of H2O and acetonitrile containing internal standard (1:1). A certain proportion of ultrapure water was used to dilute the diluent according to the peak shape. The dilution factor was changed according to the solubility values and the LC-MS signal response.
Preparation of 3 μM standards (STD): From the 10 mM DMSO STD plate, 6 μL was transferred into the remaining empty plate, and then 194 μL of DMSO was added to that plate to have a STD concentration of 300 μM. From the 300 μM DMSO STD plate, 5 μL was transferred into the remaining empty plate, and then 495 μL of a mixture of H2O and acetonitrile containing internal standard (1:1) was added to that plate to have a final STD concentration of 3 μM. A certain proportion of ultrapure water was used to dilute the diluent according to the peak shape. The concentrations of the standard samples were changed according to the LC-MS signal response.
Procedure for sample analysis: The plate was placed into the well plate autosampler. The samples were evaluated by LC-MS/MS analysis.
Data analysis: All calculations were carried out using Microsoft Excel.
The filtrate was analyzed and quantified against a standard of known concentration using LC coupled with mass spectral peak identification and quantitation. Solubility values of the test compound and control compound were calculated as follows:
[formula] • Any value of the compounds that was not within the specified limits was rejected and the experiment was repeated.

A further data set deals with PI3Kα (Homo sapiens, UniProt P42336). Briefly: ADP-Glo luminescent assay, enzymatic activity of PI3K alpha. Conditions: ATP 25 μM; read-out: PI3K alpha (nM) inhibitory activity (IC50). It is filed as biochemical. As for the experimental part: (§4) Enzymatic activity of PI3K isoforms: Enzymatic activity of the class I PI3K isoforms in the presence of the compounds of Table 1 was measured using ADP-Glo luminescent assay against PI3Kα, PI3Kβ, PI3Kδ and PI3Kγ with ATP concentration at 25 μM. IPI-549 was used as the reference compound. The compounds would be tested from 1 or 10 μM, 3-fold dilution for 10 doses, in duplicate.
as §1, §2, §3

A further data set has as its target PI3Kβ (Homo sapiens, UniProt P42338). Briefly: ADP-Glo luminescent assay, enzymatic activity of PI3K beta. It is filed as biochemical. Conditions: ATP 25 μM; read-out: PI3K beta (nM) inhibitory activity (IC50). On the procedure: as §4, §1, §2, §3

Values after ≈ are worked out from the molar mass of the structure shown.

Chain of PI3Kγ (P48736 whole entry, species assumed): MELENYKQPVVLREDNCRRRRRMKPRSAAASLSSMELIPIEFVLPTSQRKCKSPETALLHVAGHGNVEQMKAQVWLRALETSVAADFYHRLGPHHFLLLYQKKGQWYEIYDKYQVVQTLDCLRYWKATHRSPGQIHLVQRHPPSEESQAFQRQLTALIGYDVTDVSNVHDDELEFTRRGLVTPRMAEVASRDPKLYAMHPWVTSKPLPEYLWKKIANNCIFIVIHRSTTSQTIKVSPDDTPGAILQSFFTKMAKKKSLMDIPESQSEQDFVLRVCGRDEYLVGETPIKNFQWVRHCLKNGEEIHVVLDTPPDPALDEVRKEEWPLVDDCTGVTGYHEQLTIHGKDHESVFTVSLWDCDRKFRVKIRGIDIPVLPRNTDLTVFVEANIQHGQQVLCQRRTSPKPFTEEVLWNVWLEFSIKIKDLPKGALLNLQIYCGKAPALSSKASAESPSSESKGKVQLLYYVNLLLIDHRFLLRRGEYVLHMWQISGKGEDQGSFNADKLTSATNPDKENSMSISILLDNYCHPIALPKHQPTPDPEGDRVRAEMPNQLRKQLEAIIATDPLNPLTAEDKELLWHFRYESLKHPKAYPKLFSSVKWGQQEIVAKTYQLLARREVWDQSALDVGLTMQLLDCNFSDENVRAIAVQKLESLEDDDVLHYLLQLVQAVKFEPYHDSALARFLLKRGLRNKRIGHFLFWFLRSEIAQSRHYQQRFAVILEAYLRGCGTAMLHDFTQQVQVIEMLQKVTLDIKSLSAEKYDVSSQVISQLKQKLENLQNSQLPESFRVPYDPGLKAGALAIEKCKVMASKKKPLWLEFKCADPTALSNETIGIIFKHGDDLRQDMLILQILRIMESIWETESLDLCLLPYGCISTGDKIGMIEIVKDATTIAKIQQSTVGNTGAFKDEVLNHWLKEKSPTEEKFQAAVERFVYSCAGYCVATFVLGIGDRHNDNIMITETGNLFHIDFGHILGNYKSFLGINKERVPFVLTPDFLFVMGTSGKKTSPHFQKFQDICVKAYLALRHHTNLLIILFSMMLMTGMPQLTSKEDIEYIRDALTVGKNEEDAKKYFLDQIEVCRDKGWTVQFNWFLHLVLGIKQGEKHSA
T2 sequence (Q9JHG7 whole entry): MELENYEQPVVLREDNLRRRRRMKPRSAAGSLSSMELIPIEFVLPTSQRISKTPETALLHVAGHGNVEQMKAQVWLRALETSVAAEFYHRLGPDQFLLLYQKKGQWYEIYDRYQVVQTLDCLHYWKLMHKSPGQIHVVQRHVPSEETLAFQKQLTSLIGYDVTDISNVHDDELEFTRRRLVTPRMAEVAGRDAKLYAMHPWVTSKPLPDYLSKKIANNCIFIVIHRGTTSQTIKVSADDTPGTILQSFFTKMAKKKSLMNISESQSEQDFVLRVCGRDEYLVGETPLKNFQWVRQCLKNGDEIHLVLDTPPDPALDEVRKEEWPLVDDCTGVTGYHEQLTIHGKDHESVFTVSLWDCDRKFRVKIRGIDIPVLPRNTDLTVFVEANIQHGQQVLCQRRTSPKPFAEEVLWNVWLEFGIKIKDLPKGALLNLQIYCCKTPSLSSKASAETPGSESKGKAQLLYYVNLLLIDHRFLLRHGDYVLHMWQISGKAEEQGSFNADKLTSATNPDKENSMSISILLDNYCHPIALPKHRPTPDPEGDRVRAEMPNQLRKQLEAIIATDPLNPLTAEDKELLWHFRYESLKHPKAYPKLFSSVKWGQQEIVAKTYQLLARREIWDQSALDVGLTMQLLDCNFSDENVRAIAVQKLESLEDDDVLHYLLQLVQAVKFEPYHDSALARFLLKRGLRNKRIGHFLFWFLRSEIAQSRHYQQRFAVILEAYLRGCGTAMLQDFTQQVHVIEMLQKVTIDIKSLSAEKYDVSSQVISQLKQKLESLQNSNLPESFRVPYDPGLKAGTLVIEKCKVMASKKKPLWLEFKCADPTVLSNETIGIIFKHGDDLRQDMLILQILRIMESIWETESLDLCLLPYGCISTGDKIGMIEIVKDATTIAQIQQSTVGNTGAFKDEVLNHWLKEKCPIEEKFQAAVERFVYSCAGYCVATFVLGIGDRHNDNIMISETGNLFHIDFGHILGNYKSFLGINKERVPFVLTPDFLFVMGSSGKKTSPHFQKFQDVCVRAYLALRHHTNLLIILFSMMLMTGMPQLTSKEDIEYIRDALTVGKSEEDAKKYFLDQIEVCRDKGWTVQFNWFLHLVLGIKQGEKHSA
T2 sequence (Q5SW28 whole entry partner): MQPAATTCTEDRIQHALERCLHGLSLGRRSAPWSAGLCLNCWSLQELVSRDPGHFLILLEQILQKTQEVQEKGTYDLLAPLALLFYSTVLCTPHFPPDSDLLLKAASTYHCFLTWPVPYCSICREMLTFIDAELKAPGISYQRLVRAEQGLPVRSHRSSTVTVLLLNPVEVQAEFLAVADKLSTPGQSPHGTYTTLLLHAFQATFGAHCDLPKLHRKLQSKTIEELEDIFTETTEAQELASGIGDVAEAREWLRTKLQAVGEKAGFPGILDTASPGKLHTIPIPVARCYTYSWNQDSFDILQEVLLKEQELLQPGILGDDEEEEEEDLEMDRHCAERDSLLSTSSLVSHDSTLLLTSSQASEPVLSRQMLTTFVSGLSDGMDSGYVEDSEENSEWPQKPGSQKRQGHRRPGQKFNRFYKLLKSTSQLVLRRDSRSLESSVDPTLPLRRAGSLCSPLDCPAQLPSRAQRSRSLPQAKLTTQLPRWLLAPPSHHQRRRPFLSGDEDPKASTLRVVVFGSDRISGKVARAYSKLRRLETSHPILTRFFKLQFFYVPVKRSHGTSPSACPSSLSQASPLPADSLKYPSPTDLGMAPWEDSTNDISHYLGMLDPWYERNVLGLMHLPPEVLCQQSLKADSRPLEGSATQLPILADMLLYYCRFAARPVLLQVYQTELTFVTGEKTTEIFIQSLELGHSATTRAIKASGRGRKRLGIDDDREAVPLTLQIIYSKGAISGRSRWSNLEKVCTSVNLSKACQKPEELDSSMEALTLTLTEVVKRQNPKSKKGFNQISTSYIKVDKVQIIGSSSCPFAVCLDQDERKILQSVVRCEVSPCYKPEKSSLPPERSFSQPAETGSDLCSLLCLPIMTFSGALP
Chain of PI3Kα (P42336 whole entry, species assumed, canonical isoform): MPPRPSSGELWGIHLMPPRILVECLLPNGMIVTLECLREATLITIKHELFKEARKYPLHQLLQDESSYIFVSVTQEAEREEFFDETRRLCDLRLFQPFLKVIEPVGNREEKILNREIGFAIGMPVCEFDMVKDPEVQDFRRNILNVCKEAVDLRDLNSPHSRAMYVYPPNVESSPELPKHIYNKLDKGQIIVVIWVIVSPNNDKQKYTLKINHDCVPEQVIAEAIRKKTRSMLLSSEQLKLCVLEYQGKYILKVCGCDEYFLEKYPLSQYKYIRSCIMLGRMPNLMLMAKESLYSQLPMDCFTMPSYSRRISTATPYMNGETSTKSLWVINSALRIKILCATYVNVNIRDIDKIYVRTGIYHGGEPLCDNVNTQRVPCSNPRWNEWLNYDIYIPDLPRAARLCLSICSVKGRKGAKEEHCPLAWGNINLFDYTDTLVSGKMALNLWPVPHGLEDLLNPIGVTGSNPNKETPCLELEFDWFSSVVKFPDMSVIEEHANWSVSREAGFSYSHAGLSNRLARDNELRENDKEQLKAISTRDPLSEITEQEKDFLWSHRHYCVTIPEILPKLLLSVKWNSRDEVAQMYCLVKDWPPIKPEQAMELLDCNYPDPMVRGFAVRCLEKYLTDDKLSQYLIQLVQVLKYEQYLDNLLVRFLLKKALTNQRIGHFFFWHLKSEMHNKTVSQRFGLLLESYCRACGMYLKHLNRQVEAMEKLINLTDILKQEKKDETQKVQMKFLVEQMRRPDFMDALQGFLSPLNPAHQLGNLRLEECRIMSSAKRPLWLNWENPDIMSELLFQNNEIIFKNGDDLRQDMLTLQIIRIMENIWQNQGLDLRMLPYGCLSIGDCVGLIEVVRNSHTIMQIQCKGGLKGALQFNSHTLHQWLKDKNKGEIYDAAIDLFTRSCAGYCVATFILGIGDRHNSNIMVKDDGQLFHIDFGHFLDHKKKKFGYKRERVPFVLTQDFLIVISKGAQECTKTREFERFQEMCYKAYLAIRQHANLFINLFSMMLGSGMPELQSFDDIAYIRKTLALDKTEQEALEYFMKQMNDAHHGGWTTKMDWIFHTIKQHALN
Chain of PI3Kα (P27986 whole entry partner, species assumed, canonical isoform): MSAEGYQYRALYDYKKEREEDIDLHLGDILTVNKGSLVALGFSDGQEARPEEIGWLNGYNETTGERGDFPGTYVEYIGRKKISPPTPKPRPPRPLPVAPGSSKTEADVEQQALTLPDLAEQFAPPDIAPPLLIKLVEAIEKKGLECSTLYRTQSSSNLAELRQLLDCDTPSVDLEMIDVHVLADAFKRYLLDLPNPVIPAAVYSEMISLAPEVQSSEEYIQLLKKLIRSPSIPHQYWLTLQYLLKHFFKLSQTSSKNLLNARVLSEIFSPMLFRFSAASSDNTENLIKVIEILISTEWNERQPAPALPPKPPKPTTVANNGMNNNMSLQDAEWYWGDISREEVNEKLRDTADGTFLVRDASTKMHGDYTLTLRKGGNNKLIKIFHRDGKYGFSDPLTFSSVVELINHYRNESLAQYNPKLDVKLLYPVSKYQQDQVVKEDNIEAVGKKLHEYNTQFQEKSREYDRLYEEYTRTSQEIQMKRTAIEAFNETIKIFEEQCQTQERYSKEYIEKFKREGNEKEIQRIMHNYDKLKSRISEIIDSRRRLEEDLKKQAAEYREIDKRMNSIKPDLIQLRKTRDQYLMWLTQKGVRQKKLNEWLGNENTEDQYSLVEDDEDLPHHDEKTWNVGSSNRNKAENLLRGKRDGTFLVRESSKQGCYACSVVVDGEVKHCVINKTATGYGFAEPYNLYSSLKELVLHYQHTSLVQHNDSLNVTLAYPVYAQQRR

In the case of `CC(=O)Nc1nc(C)c(-c2cc3c(c(NS(C)(=O)=O)c2)C(=O)N([C@@H](C)C2CC2)C3)s1` [AZ-17], the “Vssobs” value in data set [1] is given as 0.7 L/kg.
On to `CC(=O)Nc1nc(C)c(-c2cc3c(c(P(C)(C)=O)c2)C(=O)N([C@@H](C)C2CC2)C3)s1` [Compound 1, (S)-N-(5-(2-(1-cyclopropylethyl)-7-(dimethylphosphoryl)-1-oxoisoindolin-5-yl)-4-methylthiazol-2-yl)acetamide], for which the IC50 was 1.4 nM on PI3Kγ, more than 1000 nM at PI3K delta, 315 nM at PI3K gamma and more than 1000 nM at PI3Kδ.
For the molecule `COc1nc(-c2sc(NC(C)=O)nc2C)cc2c1C(=O)N([C@@H](C)C1CC1)C2` [Compound 22, (S)-N-(5-(2-(1-cyclopropylethyl)-4-methoxy-3-oxo-2,3-dihydro-1H-pyrrolo[3,4-c]pyridin-6-yl)-4-methylthiazol-2-yl)acetamide], the IC50 was 1.7 nM on PI3Kγ, 2280 nM at PI3K delta, 2.5 nM on PI3K gamma and more than 1000 nM at PI3Kδ. The solubility at 2 h in data set [2] amounted to 3.5 µM (≈ 1.35 µg/mL).
As to `CCS(=O)(=O)Nc1nc(-c2sc(NC(C)=O)nc2C)cc2c1C(=O)N([C@@H](C)C1CC1)C2` [Compound 23, (S)-N-(5-(2-(1-cyclopropylethyl)-4-(ethylsulfonamido)-3-oxo-2,3-dihydro-1H-pyrrolo[3,4-c]pyridin-6-yl)-4-methylthiazol-2-yl)acetamide], the IC50 is 1 nM at PI3Kγ; 1510 nM at PI3K delta; 2 nM on PI3K gamma; 3330 nM on PI3Kα; more than 10000 nM at PI3Kβ; 1210 nM at PI3Kδ. The solubility at 2 h in data set [2] came to 202 µM (≈ 93.6 µg/mL).
As to `CC(=O)Nc1nc(C)c(-c2cc3c(c(NS(=O)(=O)C4CC4)n2)C(=O)N([C@@H](C)C2CC2)C3)s1` [Compound 24, (S)-N-(5-(4-(cyclopropanesulfonamido)-2-(1-cyclopropylethyl)-3-oxo-2,3-dihydro-1H-pyrrolo[3,4-c]pyridin-6-yl)-4-methylthiazol-2-yl)acetamide], the IC50 at PI3Kγ is 1.5 nM; on PI3K delta it was 1420 nM; on PI3K gamma it was 2.2 nM; on PI3Kδ, 794 nM. The molecule also showed a solubility at 2 h in data set [2] of 83 µM (≈ 39.5 µg/mL).
For the molecule `CC(=O)Nc1nc(C)c(-c2cc3c(c(N4CCOCC4)n2)C(=O)N([C@H](C)C2CC2)C3)s1` [Compound 35, (R)-N-(5-(2-(1-cyclopropylethyl)-4-morpholino-3-oxo-2,3-dihydro-1H-pyrrolo[3,4-c]pyridin-6-yl)-4-methylthiazol-2-yl)acetamide], the IC50 at PI3K gamma was 3.2 nM; at PI3Kα, 4140 nM; at PI3Kβ it was more than 10000 nM; at PI3Kδ, 1330 nM. This molecule also came in with a solubility at 2 h in data set [2] of 23 µM (≈ 10.2 µg/mL).
Turning to `CC(=O)Nc1nc(C)c(-c2cc3c(c(N4CCS(=O)(=O)CC4)n2)C(=O)N([C@@H](C)C2CC2)C3)s1` [Compound 38, (S)-N-(5-(2-(1-cyclopropylethyl)-4-(1,1-dioxidothiomorpholino)-3-oxo-2,3-dihydro-M-pyrrolo[3,4-c]pyridin-6-yl)-4-methylthiazol-2-yl)acetamide], the IC50 at PI3Kγ was 1.9 nM; at PI3K gamma, 9.3 nM; at PI3Kα it was 8420 nM; at PI3Kβ, more than 10000 nM; at PI3Kδ it was 1550 nM. In data set [2], this molecule came in with a solubility at 2 h of 2.3 µM (≈ 1.13 µg/mL).

Source of the values: patent US11542262B2, “Phosphatidylinositol 3-kinase inhibitors” (NANJING ZHENGXIANG PHARMACEUTICALS CO., LTD., priority 2019, dated 2023).
